Test results published in publication PMC6389962 (Nature Communications, 2019).

Tests used:
[1] = tested on: fasted normal mice (C57BL/6J); assay: Intraperitoneal glucose tolerance test (IPGTT) in fasted normal mice; format: in vivo, mouse; details: for AUC: IPGTT 5 min (Fig 4a), blood glucose AUC 0-120 min
Procedure: In a second study, an IPGTT was performed 30 min after i.v. injections of 1, 14 and the vehicle (Fig. 4b). […] A further IPGTT study was done with a glucose challenge after 2 h of the dosing to investigate the prolonged activity of hybrids 14, 22 and 23 (Fig. 4c).
Fig. 4 IPGTT studies in mice. a–d Intraperitoneal glucose tolerance test (IPGTT) at different time after dosing in fasted normal mice (C57BL/6J, male, 20–25 g). Dosage: 200 μg kg^−1 (50 nmol kg^−1) i.v. Formulation: 20 μg mL^−1 in PBS 1×. IPGTT: glucose 2 g kg^−1 i.p. at T0. a IPGTT after 5 min (n = 4). b IPGTT after 30 min (n = 6). c IPGTT after 2 h (n = 6). d IPGTT after 4 h (n = 3). Area under the curve (AUC) of the corresponding IPGTT curve. Data are mean ± SEM. […] Source data are provided as a Source Data file
After the acclimation period (at least 5 days), mice (male C57BL/6J mice (Charles River laboratories) 6 weeks old, 20–25 g) were randomized into groups according to their body weight. The mice were fasted for 6 h prior being acutely treated via i.v. route (5 µg per mouse i.v. (200 μg kg^−1, 50 nmol kg^−1)) formulated at 20 µg mL^−1 in PBS 1×. The IPGTTs were performed (glucose 2 g kg^−1 i.p.) 5 min, 30 min, 2 h or 4 h after dosing and blood glucose was measured at different time points after the glucose challenge.

[2] = Pharmacokinetic evaluation in mice, i.v. (final study, Fig. 5); details: C57BL/6J mice, LC-MS/MS
Procedure: Data are mean ± SEM, n = 3. Source data are provided as a Source Data file
After different time points, mice were sacrificed and blood samples were collected. The plasma was separated by centrifugation and the samples were frozen at −80 °C before analysis. A volume of 400 µL of each sample of plasma was mixed with 1 ml of acetonitrile to precipitate the protein and extract the compound. The sample were then vortexed and centrifuged (15,000 × g, 5 min, 16 °C) to sediment the precipitated protein.

[3] = tested on: normal mice (C57BL/6J); assay: Blood glucose study in normal fed mice; format: in vivo, mouse; design: key to In vivo activity (indicator): + active; +++: + + + more active
Procedure, shortened: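 Fed male C57BL/6J mice (8 weeks, 20–25 g, n = 3 per group) received a single i.v. dose of 5 µg per mouse (50 nmol kg^−1) in PBS at 10 am. Blood glucose measured before dosing and at 30 min, 1, 2, 4 and 6 h after.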

[4] = target: T1, mouse GLP-1 receptor (Mus musculus, UniProt O35659); assay: cell-based
T1 sequence (O35659 22-463): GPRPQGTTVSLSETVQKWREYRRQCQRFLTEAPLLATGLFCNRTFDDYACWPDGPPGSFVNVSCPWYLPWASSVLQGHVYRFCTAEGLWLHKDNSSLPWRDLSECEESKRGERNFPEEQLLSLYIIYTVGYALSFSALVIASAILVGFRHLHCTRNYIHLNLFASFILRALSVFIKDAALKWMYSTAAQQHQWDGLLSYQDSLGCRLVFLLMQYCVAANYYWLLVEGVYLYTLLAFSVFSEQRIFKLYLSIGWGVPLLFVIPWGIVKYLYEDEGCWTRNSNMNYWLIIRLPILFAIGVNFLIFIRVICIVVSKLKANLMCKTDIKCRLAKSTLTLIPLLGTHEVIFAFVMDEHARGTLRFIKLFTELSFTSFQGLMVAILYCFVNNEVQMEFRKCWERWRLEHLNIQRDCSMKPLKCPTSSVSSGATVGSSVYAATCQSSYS

[5] = target: NEP 24.11 (Homo sapiens, UniProt P08473); assay: in vitro; details: pH 8
Procedure: (§1) Stock solutions of the oligomers were prepared at a concentration of 400 µM in a solution of 50 mM HEPES buffer, 50 mM NaCl, 0.05% Tween-80, pH 8.0. Stock solution of NEP 24.11 was prepared at a concentration of 100 µg mL^−1 in water. Stability of oligomers to NEP 24.11 was assessed by conducting protease reaction in a 96-well plates at 20 °C. […] Each compound was also incubated in the absence of the enzyme (12 µL of HEPES buffer and 38 µL of oligomer). […] A portion of the quenched reaction solution was analysed by HPLC. The time course of peptide degradation was determined by integrating the area of each peak in a series of HPLC traces.

[6] = in vitro; details: isolated enzyme neprilysin, pH 8, % remaining analogue
Procedure: as §1

[7] = fasted C57BL/6J mice, 200 μg kg−1 (50 nmol kg−1) i.v., glucose 2 g kg−1 i.p., n = 6
[8] = male, C57BL/6J, mouse, in vivo, iv, 1 mg/kg, Concentration (plasma), animal 1
[9] = male, C57BL/6J, mouse, in vivo, iv, 1 mg/kg, Concentration (plasma), animal 2
[10] = male, C57BL/6J, mouse, in vivo, iv, 1 mg/kg, Concentration (plasma), animal 3

Sequence of NEP 24.11 (P08473 whole entry): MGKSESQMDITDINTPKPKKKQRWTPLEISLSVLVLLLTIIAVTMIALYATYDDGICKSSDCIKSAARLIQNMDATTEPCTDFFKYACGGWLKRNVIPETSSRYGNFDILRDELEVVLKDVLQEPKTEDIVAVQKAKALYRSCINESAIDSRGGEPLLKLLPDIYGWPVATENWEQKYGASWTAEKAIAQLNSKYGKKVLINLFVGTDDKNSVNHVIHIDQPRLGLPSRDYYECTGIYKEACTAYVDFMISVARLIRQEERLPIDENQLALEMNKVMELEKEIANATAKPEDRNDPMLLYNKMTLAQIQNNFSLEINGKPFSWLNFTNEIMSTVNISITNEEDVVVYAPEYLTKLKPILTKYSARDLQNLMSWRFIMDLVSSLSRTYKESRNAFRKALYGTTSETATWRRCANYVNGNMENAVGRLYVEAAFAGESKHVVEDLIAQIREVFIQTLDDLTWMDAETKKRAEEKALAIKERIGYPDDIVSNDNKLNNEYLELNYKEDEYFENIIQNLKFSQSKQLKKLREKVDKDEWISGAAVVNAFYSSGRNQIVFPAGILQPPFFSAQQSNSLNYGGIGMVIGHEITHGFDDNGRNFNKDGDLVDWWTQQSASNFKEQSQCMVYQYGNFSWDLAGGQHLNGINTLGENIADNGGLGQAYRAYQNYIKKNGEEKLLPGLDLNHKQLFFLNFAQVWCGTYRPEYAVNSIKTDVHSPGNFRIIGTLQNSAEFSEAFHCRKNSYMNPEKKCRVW

In the case of CC[C@H](C)[C@H](NC(=O)[C@H](Cc1ccccc1)NC(=O)[C@H](CCC(=O)O)NC(=O)[C@H](CCCCN)NC(=O)[C@H](C)NC(=O)[C@H](C)NC(=O)[C@H](CCC(N)=O)NC(=O)CNC(=O)[C@H](CCC(=O)O)NC(=O)[C@H](CC(C)C)NC(=O)[C@H](Cc1ccc(O)cc1)NC(=O)[C@H](CO)NC(=O)[C@H](CO)NC(=O)[C@@H](NC(=O)[C@H](CC(=O)O)NC(=O)[C@H](CO)NC(=O)[C@@H](NC(=O)[C@H](Cc1ccccc1)NC(=O)[C@@H](NC(=O)CNC(=O)[C@H](CCC(=O)O)NC(=O)CNC(=O)[C@@H](N)Cc1c[nH]cn1)[C@@H](C)O)[C@@H](C)O)C(C)C)C(=O)N[C@@H](C)C(=O)N[C@@H](Cc1c[nH]c2ccccc12)C(=O)N[C@@H](CC(C)C)C(=O)N[C@H](C(=O)N[C@@H](CCCCN)C(=O)NCC(=O)N[C@@H](CCCNC(=N)N)C(=O)NCC(N)=O)C(C)C [compound 1, GLP-1-G^2 (GG2)], the AUC ([1]; mean of n = 4, 2018-03-08) is reported as 21223 mg·min/dL, the AUC ([1]; single animal, 1st of group) is reported as 20535 mg·min/dL and the AUC ([1]; single animal, 2nd of group) is reported as 25208 mg·min/dL. For the same molecule, the AUC ([1]; single animal, 3rd of group) was 19110 mg·min/dL, the AUC ([1]; single animal, 4th of group) was 20040 mg·min/dL and the “activity in IPGTT 5 min after dosing” value ([1]; fasted C57BL/6J mice, 200 μg kg−1 (50 nmol kg−1) i.v., glucose 2 g kg−1 i.p., n = 4) was “both analogues were active”. For the same molecule, the “activity in IPGTT 30 min after dosing” value [1, 7] was “already inactive”, the “activity in IPGTT 2 h after dosing” value [1, 7] was “IPGTT curve similar to the vehicle” and the “Concentration (plasma)” value ([2]; time 3 min, animal 3) was 3680 nM. For the same molecule, the “Concentration (plasma)” value ([2]; time 15 min, animal 3) was 60 nM, the “Concentration (plasma)” value ([2]; time 30 min, animal 2) was 10 nM and the “Concentration (plasma)” value ([2]; time 30 min, animal 3) was 0 nM. The level at time molar at 1 min [2, 8] was 7920 nM, the level at time molar at 1 min [2, 9] was 8370 nM and the level at time molar at 1 min [2, 10] was 10800 nM. The level at time molar at 0.05 h ([2]; male, C57BL/6J, mouse, in vivo, iv, 1 mg/kg, Concentration (plasma), time 3 min, animal 1) was 3740 nM, the level at time molar at 0.05 h ([2]; male, C57BL/6J, mouse, in vivo, iv, 1 mg/kg, Concentration (plasma), time 3 min, animal 2) was 3500 nM and the level at time molar at 5 min [2, 8] was 1780 nM. It also gave a level at time molar at 5 min [2, 9] of 2610 nM, a level at time molar at 5 min [2, 10] of 2540 nM and a level at time molar at 10 min [2, 8] of 360 nM. For the same molecule, the level at time molar at 10 min [2, 9] was 430 nM, the level at time molar at 10 min [2, 10] was 380 nM and the level at time molar at […] ([2]; male, C57BL/6J, mouse, in vivo, iv, 1 mg/kg, Concentration (plasma), time 15 min, animal 1) was 100 nM. For the same molecule, the level at time molar at […] ([2]; male, C57BL/6J, mouse, in vivo, iv, 1 mg/kg, Concentration (plasma), time 15 min, animal 2) was 60 nM, the level at time molar at 0.5 h ([2]; male, C57BL/6J, mouse, in vivo, iv, 1 mg/kg, Concentration (plasma), time 30 min, animal 1) was 10 nM and the “In vivo activity (indicator)” value ([3]; mice, 50 nmol kg−1 i.v.) was “+”. For the same molecule, the “effect on blood glucose concentration” value ([3]; normal fed C57BL/6J mice, n = 3, 5 μg per mouse (50 nmol kg−1) i.v., monitored 6 h) was “decreased of blood glucose concentration after 30 min”, the EC50 [4] was 240 pM and the Emax ([4]; read-out: Top (best-fit value)) was 106%. For the same molecule, the “% remaining analogue” value ([5]; isolated enzyme neprilysin, 22 h) was 0.6%, the “NEP 24.11 t1/2” value [5] was 3.6 h and the remaining at 1 h [6] was 77.5%. It also gave a remaining at 2 h [6] of 63.1%, a remaining at 4 h [6] of 47.1% and a remaining at 6 h [6] of 32.6%.
